What follows are compounds tested against human PAD4 (hPAD4) (Homo sapiens, UniProt Q9UM07) (assay: RFMS Human PAD4 Functional Assay). Details: hPAD4 RFMS IC50, human PAD4, rapid-fire mass spectrum (RFMS) assay; 5 nM hPAD4, 250 μM BAEE.
Sequence of human PAD4 (hPAD4) (Q9UM07 whole entry): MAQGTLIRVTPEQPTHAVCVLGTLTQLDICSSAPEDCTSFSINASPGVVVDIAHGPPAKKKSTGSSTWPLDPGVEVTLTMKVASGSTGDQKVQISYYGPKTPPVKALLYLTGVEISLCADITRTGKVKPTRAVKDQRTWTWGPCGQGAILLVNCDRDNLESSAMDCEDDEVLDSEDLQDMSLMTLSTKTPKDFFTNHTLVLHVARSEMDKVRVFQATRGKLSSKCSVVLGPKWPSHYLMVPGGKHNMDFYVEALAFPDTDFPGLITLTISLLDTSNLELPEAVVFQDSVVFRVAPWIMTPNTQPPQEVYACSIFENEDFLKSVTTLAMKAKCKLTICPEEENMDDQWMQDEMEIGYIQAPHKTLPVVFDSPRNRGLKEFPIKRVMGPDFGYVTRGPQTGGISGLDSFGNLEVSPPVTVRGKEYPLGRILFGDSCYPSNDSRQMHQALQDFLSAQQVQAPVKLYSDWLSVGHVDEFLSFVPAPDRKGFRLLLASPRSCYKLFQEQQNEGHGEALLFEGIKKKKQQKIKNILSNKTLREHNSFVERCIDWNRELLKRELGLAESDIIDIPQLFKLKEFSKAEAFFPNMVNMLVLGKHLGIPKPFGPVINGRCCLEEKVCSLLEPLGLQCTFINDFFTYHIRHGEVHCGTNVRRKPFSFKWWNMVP
Format: biochemical
Method in brief: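 RapidFire ESI-MS quantification, normalised to a modified-citrulline internal standard, after phenyl glyoxal (final 4 mM) derivatisation of the TCA-quenched reaction. The enzyme (10 nM) sat 30 min with compound (up to 50 μM final) before 500 μM BAEE (as added) started a 90 min, 37 °C reaction. Buffer: HEPES pH 7.5, 50 μM calcium, 5 μM TPEN.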
For COc1cc(C(=O)N2C[C@H]3CC[C@@H]2[C@@H]3N)cc2nc(-c3cc4cccc(Nc5c(C)nn(C)c5C)c4n3CC3CC3C)n(C)c12 (stereo partly drawn) [Example 180, ((1R,4R,7R)-7-amino-2-azabicyclo[2.2.1]heptan-2-yl)(7-methoxy-1-methyl-2-(1-((2-methylcyclopropyl)meth-yl)-7-((1,3,5-trimethyl-1H-pyrazol-4-yl)amino)-1H-indol-2-yl)-1H-benzo[d]imidazol-5-yl)methanone], the IC50 was 27 nM.
For COc1cc(C(=O)N2C[C@H]3CC[C@@H]2[C@@H]3N)cc2nc(-c3cc4cccc(C5CN(C)C5)c4n3CC3CC3)n(C)c12 [Example 22, (1R,4R,7R)-2-{2-[1-(cyclopropylmethyl)-7-(1-methylazetidin-3-yl)-1H-indol-2-yl]-7-methoxy-1-methyl-1H-1,3-benzodiazole-5-carbonyl}-2-azabicyclo[2.2.1]heptan-7-amine], the IC50 was 42 nM.
With COc1cc(C(=O)N2C[C@H]3CC[C@@H]2[C@@H]3N)cc2nc(-c3cc4cccc(C5CC(O)C5)c4n3CC3CC3)n(C)c12 (mixture of isomers) [Example 18, cis- and trans-3-(2-{5-[(1R,4R,7R)-7-amino-2-azabicyclo[2.2.1]heptane-2-carbonyl]-7-methoxy-1-methyl-1H-1,3-benzodiazol-2-yl}-1-(cyclopropylmethyl)-1H-indol-7-yl)cyclobutan-1-ol] the IC50 was 71 nM.
COc1cc(C(=O)N2C[C@H]3CC[C@@H]2[C@@H]3N)cc2nc(-c3cc4cccc(CCCS(C)(=O)=O)c4n3CC3CC3)n(C)c12 [Example 27, (1R,4R,7R)-2-{2-[1-(cyclopropylmethyl)-7-(3-methanesulfonylpropyl)-1H-indol-2-yl]-7-methoxy-1-methyl-1H-1,3-benzodiazole-5-carbonyl}-2-azabicyclo[2.2.1]heptan-7-amine] showed an IC50 of 74 nM.
COc1cc(C(=O)N2C[C@H]3CC[C@@H]2[C@@H]3N)cc2nc(-c3cc4cccc(C5CCN(C(=O)COCC(F)(F)F)CC5)c4n3CC3CC3)n(C)c12 [Example 232, 1-(4-(2-(5-((1R,4R,7R)-7-amino-2-azabicyclo[2.2.1]heptane-2-carbonyl)-7-methoxy-1-methyl-1H-benzo[d]imidazol-2-yl)-1-(cyclopropylmethyl)-1H-indol-7-yl)piperidin-1-yl)-2-(2,2,2-trifluoroethoxy)ethan-1-one] showed an IC50 of 19 nM.
COCCC(=O)N1CCC(c2cccc3cc(-c4nc5cc(C(=O)N6C[C@H]7CC[C@@H]6[C@@H]7N)cc(OC)c5n4C)n(CC4CC4)c23)CC1 [Example 236, 1-(4-(2-(5-((1R,4R,7R)-7-amino-2-azabicyclo[2.2.1]heptane-2-carbonyl)-7-methoxy-1-methyl-1H-benzo[d]imidazol-2-yl)-1-(cyclopropylmethyl)-1H-indol-7-yl)piperidin-1-yl)-3-methoxypropan-1-one] gave an IC50 of 57 nM.
COc1cc(C(=O)N2C[C@H]3CC[C@@H]2[C@@H]3N)cc2nc(-c3cc4cccc(C)c4n3CC3CC3)n(C)c12 [Example 147, ((1R,4R,7R)-7-amino-2-azabicyclo[2.2.1]heptan-2-yl)(2-(1-(cyclopropylmethyl)-7-methyl-1H-indol-2-yl)-7-methoxy-1-methyl-1H-benzo[d]imidazol-5-yl)methanone] showed an IC50 of 79 nM.
COc1cc(C(=O)N2C[C@H]3CC[C@@H]2[C@@H]3N)cc2nc(-c3cc4cccc(-c5cnc(C(N)=O)c(F)c5)c4n3CC3CC3)n(C)c12 [Example 199, 5-(2-(5-((1R,4R,7R)-7-amino-2-azabicyclo[2.2.1]heptane-2-carbonyl)-7-methoxy-1-methyl-1H-benzo[d]imidazol-2-yl)-1-(cyclopropylmethyl)-1H-indol-7-yl)-3-fluoropicolinamide] was tested, and the IC50 was 159 nM.

Same assay, conditions: human PAD4, rapid-fire mass spectrum (RFMS) assay; 5 nM hPAD4, 250 μM BAEE; read-out: hPAD4 RFMS IC50
In the case of COc1cc(C(=O)N2C[C@H]3CC[C@@H]2[C@@H]3N)cc2nc(-c3cc4cccc(CC5CN(C(C)=O)C5)c4n3CC3CC3)n(C)c12 [Example 63, 1-{3-[(2-{5-[(1R,4R,7R)-7-amino-2-azabicyclo[2.2.1]heptane-2-carbonyl]-7-methoxy-1-methyl-1H-1,3-benzodiazol-2-yl}-1-(cyclopropylmethyl)-H-indol-7-yl)methyl]azetidin-1-yl}ethan-1-one], the IC50 is reported as 62 nM.
